One may read the IC50 as the concentration needed to halve the response being measured.

Read-outs that look alike come from different tables or passages of the source.

Test [1] deals with SGK-1 dependent phosphorylation of GSK3beta in U2OS cells. Briefly: SGK-1 dependent phosphorylation of GSK3beta in U2OS cells overexpressing recombinant SGK-1 and GSK3beta. It counts as cell-based, human. Particulars: Homo sapiens; U2OS cells, 6 h incubation, ratio of phosphorylated GSK3beta to total GSK3beta; read-out: IC50 values for inhibition of SGK-1 dependent phosphorylation of GSK3beta in U2OS cells. As for the experimental part:
B) Determination of the Effect on SGK-1 Dependent Phosphorylation of GSK3beta in U2OS Cells
U2OS cells were cultured in 1:1 Dulbecco modified Eagle medium/Ham's F12 and 10% heat-inactivated fetal calf serum (FCS Gold) at 37° C., 7% CO2 and 95% relative humidity. […] Cell suspension mixed with BacMam viruses was seeded in 96 well pCLEAR plates (Greiner) at 3×10^4 cells per well in 250 μl medium. […] 1 μl of a solution of the test compound at 250×final concentration was added. Cells are incubated at 37° C., 7% CO2 and 95% relative humidity. […] After removing the fixation solution, cells were permeabilised by adding 200 μl PBT (0.2% Triton X-100 in PBS) per well for 5 min. After removing PBT, cells were blocked by adding 200 μl of blocking solution (1% bovine serum albumine in PBS) per well. Blocking solution was removed and 50 μl of primary antibody (rabbit anti-phospho-GSK-3beta (Ser9), and mouse anti-GSK-3beta) were added for 1 h. […] After washing the cells 3 times with PBS, 200 μl of PBS were added. Fluorescence signals were measured with the ImageXpress MICRO (Molecular Devices).

The target of test [2] is recombinant human SGK-1 enzyme (Homo sapiens, UniProt O00141). The experiment in a line: Enzymatic activity assay: SGK-1 substrate peptide phosphorylation (Caliper lab-chip mobility shift). Format: biochemical. As for the experimental part: In one of the cellular assays, the SGK-1 dependent phosphorylation of glycogen synthase kinase 3beta (GSK3beta) in U2OS cells was measured, in another one, a functional electrophysiological assay, the SGK-1 dependent activation of epithelial Na^+ channel (ENaC) currents in A6 cell monolayers, and in another one chondrocyte hypertrophic differentiation in mouse chondrogenic ATDC5 cells.
recombinant human SGK-1 enzyme, sequence (O00141 whole entry, looked up): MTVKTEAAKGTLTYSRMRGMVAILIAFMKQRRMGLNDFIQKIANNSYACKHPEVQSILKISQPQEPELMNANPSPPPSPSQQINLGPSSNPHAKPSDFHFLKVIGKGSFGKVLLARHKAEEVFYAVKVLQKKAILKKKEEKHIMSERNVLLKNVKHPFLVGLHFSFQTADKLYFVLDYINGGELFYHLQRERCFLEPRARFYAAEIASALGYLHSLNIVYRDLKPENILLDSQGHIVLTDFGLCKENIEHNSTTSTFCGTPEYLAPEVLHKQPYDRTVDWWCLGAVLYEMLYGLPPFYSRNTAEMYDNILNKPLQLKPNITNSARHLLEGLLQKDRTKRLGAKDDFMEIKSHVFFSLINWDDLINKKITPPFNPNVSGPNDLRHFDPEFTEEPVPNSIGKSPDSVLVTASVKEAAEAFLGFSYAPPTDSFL
A) Enzymatic Activity Assay
For the determination of the compound dose response, a 10 mM DMSO stock solution was diluted and tested in a ten-point, three-fold dilution series run in duplicate beginning at 30 μM final concentration. Data were analyzed using a four-parameter curve fit with a fixed minimum and maximum experimentally defined as the average positive and negative controls on each plate.

Where [3] appears, read: peptide substrate 1 μM, ATP 10 μM, 60 min at 37° C., read-out: IC50 values for inhibition of SGK-1 enzymatic activity.
The mark [4] stands for this setting: read-out: IC50 values for inhibition of SGK-1 enzymatic activity, peptide substrate 1 μM, ATP 10 μM, 60 min at 37° C.

In the case of `Nc1n[nH]c2nc(-c3ccc(NS(=O)(=O)c4cc(Cl)c(F)cc4F)cc3)ncc12` [Example 445, N-[4-(3-Amino-1H-pyrazolo[3,4-d]pyrimidin-6-yl)-phenyl]-5-chloro-2,4-difluoro-benzenesulfonamide], the IC50 in test [1] was 340 nM.
The same measure, in the same setting: in the case of `CC(C)Oc1nc(-c2ccc(NS(=O)(=O)c3cc(Cl)ccc3F)c(F)c2)nc2[nH]nc(N)c12` [Example 444, N-[4-(3-Amino-4-isopropoxy-1H-pyrazolo[3,4-d]pyrimidin-6-yl)-2-fluoro-phenyl]-5-chloro-2-fluoro-benzenesulfonamide] it was 50 nM; in that of `O=C(Nc1n[nH]c2nc(-c3ccc(NS(=O)(=O)c4cc(Cl)ccc4Cl)cc3)ncc12)C1CCNCC1` [Example 546, N-[6-[4-[(2,5-Dichlorophenyl)sulfonylamino]phenyl]-1H-pyrazolo[3,4-d]pyrimidin-3-yl]piperidine-4-carboxamide], 1100 nM; in that of `Nc1n[nH]c2nc(-c3ccc(NS(=O)(=O)c4cc(Cl)ccc4F)cc3)nc(C(F)(F)F)c12` [Example 568, N-[4-(3-Amino-4-trifluoromethyl-1H-pyrazolo[3,4-d]pyrimidin-6-yl)-phenyl]-5-chloro-2-fluoro-benzenesulfonamide], 170 nM.
The same measure, in the same setting: under `Cc1nc(-c2ccc(NS(=O)(=O)c3cc(Cl)ccc3Cl)cc2)nc2[nH]nc(NC(=O)C3CCOCC3)c12` [Example 545, N-[6-[4-[(2,5-Dichlorophenyl)sulfonylamino]phenyl]-4-methyl-1H-pyrazolo[3,4-d]pyrimidin-3-yl]tetrahydropyran-4-carboxamide] stands 73 nM.
For the compound `COc1ccc(Oc2nc(-c3ccc(NS(=O)(=O)c4cc(C)ccc4F)cc3)cc3[nH]nc(C)c23)cn1` [Example 654], the IC50 in test [2] (setting [3]) stood at 37 nM.
Still for that read-out and setting: under `CCN1CCC(Oc2nc(-c3ccc(NS(=O)(=O)c4ccccc4F)cc3)nc3[nH]nc(C)c23)CC1` [Example 402] stands 13 nM.
Regarding `Nc1n[nH]c2nc(-c3ccc(NS(=O)(=O)c4cc(Cl)c(F)cc4F)cc3)nc(C3CC3)c12` [Example 448, N-[4-(3-Amino-4-cyclopropyl-1H-pyrazolo[3,4-d]pyrimidin-6-yl)phenyl]-5-chloro-2,4-difluoro-benzenesulfonamide], the IC50 in test [2] (setting [4]) was below 1.5 nM.
Consider `CC(C)COc1nc(-c2ccc(NS(=O)(=O)c3cc(F)c(F)cc3Cl)cc2)nc2[nH]nc(N)c12` [Example 325], for which the IC50 in test [2] (setting [3]) amounted to 1100 nM.
Take `Cc1nc(-c2ccc(NS(=O)(=O)c3cc(Cl)ccc3Cl)cc2)nc2[nH]nc(NCC3CCOCC3)c12` [Example 547, 2,5-Dichloro-N-(4-{4-methyl-3-[(tetrahydro-pyran-4-ylmethyl)-amino]-1H-pyrazolo[3,4-d]pyrimidin-6-yl}-phenyl)-benzenesulfonamide]: the IC50 in test [1] came out at 4000 nM.
Regarding `Cc1ccc(C#N)c(S(=O)(=O)Nc2ccc(-c3cc4[nH]nc(N)c4cn3)cc2)c1` [Example 553, N-[4-(3-Amino-1H-pyrazolo[4,3-c]pyridin-6-yl)phenyl]-2-cyano-5-methyl-benzenesulfonamide], in test [1], the IC50 was 6400 nM.
On to `COc1ccc(Oc2nc(-c3ccc(NS(=O)(=O)c4cc(F)ccc4F)cc3)cc3[nH]nc(C)c23)cn1` [Example 622], for which the IC50 in test [2] (setting [3]) amounted to 37 nM.
Still for that read-out and setting: under `COc1ccc(F)c(S(=O)(=O)Nc2ccc(-c3cc4[nH]nc(C)c4c(Oc4ccc(OC)nc4)n3)cc2)c1` [Example 653] stands 30 nM.
Same read-out and setting: under `COc1ccc(C#N)c(S(=O)(=O)Nc2ccc(-c3nc(OC4CCC(O)CC4)c4c(C)n[nH]c4n3)cc2)c1` (stereo not drawn) [Example 130] stands 13 nM; under `Nc1n[nH]c2cc(-c3ccc(NS(=O)(=O)c4cc(F)cc(F)c4Cl)cc3)nc(C(F)(F)F)c12` [Example 576], 430 nM.
On the same count and under the same terms, in the case of `COc1ccc(Cl)c(S(=O)(=O)Nc2ccc(-c3cc4[nH]nc(C)c4c(Oc4ccc(N(C)C)nc4)n3)cc2)c1` [Example 699] it was 25 nM.
In the case of `COCCN1CCC(Oc2nc(-c3ccc(NS(=O)(=O)c4cc(F)ccc4F)cc3)nc3[nH]nc(C)c23)CC1` [Example 407], in test [2] (setting [3]), the IC50 came to 11 nM.
Still for that read-out and setting: under `CC(C)COc1nc(-c2ccc(NS(=O)(=O)c3ccc(F)cc3Cl)cc2)nc2[nH]nc(N)c12` [Example 318] stands 950 nM.
On the same count and under the same terms, under `N#Cc1ccc(Cl)cc1S(=O)(=O)Nc1ccc(-c2cc3[nH]nc(N)c3c(C(F)(F)F)n2)cc1` [Example 570] stands 2 nM; under `COc1cc(Oc2nc(-c3ccc(NS(=O)(=O)c4cc(Cl)ccc4Cl)cc3)cc3[nH]nc(C)c23)ccn1` [Example 669], 31 nM.
Still for that read-out and setting: under `CCCOc1nc(-c2ccc(NS(=O)(=O)c3cc(F)c(F)cc3Cl)cc2)cc2[nH]nc(N)c12` [Example 605] stands 23 nM.
Take `O=C(Nc1n[nH]c2nc(-c3ccc(NS(=O)(=O)c4cc(Cl)ccc4Cl)cc3)ncc12)c1cccc(Cl)c1Cl` [Example 540]: the IC50 in test [2] (setting [3]) was found to be 11 nM.
The same measure, in the same setting: in the case of `Cc1n[nH]c2cc(-c3ccc(NS(=O)(=O)c4cc(Cl)ccc4F)cc3)nc(OCCC(=O)N(C)C)c12` [Example 687] it was 15 nM; in that of `COc1ccc(Cl)c(S(=O)(=O)Nc2ccc(-c3cc4[nH]nc(C)c4c(Oc4ccnc(OC)c4)n3)cc2)c1` [Example 670], 25 nM; in that of `CCCOc1nc(-c2ccc(NS(=O)(=O)c3cc(Cl)ccc3Cl)cc2)cc2[nH]nc(N)c12` [Example 664], 13 nM.
Turning to `COc1cc(Oc2nc(-c3ccc(NS(=O)(=O)c4cc(Cl)ccc4F)cc3)cc3[nH]nc(C)c23)ccn1` [Example 666], the IC50 in test [2] (setting [3]) stood at 25 nM.
On the same count and under the same terms, under `Cc1n[nH]c2cc(-c3ccc(NS(=O)(=O)c4cc(Cl)ccc4Cl)cc3)nc(OC3CC(C)(C)N(C)C(C)(C)C3)c12` [Example 620] stands 3.9 nM; under `Cc1n[nH]c2cc(-c3ccc(NS(=O)(=O)c4cc(Cl)ccc4F)cc3)nc(Oc3ccc(N(C)C)nc3)c12` [Example 694], 25 nM; under `Cc1n[nH]c2nc(-c3ccc(NS(=O)(=O)c4cc(Cl)ccc4C#N)cc3)nc(OCC(C)C)c12` [Example 354], 110 nM.
The same measure, in the same setting: under `Cc1n[nH]c2cc(-c3ccc(NS(=O)(=O)c4cc(F)ccc4F)cc3)nc(OCC3CN(C(C)C)C3)c12` [Example 592] stands 2 nM; under `COc1ccc(Cl)c(S(=O)(=O)Nc2ccc(-c3cc4[nH]nc(C)c4c(OCCC(=O)N(C)C)n3)cc2)c1` [Example 689], 13 nM.
Same read-out and setting: in the case of `CCOc1nc(-c2ccc(NS(=O)(=O)c3cc(F)c(F)cc3F)cc2)cc2[nH]nc(N)c12` [Example 613] it was 19 nM; in that of `COc1ccc(Cl)c(S(=O)(=O)Nc2ccc(-c3cc4[nH]nc(C)c4c(Oc4ccc(OC)nc4)n3)cc2)c1` [Example 651], 25 nM.
Turning to `O=S(=O)(Nc1ccc(-c2nc(OCC(F)(F)F)c3cn[nH]c3n2)cc1)c1cc(Cl)ccc1Cl` [Example 161], in test [2] (setting [3]), the IC50 was 19 nM.
For the compound `COc1nc(-c2ccc(NS(=O)(=O)c3cc(Cl)ccc3F)cc2)nc2[nH]nc(N)c12` [Example 7, N-[4-(3-Amino-4-methoxy-1H-pyrazolo[3,4-d]pyrimidin-6-yl)-phenyl]-5-chloro-2-fluoro-benzenesulfonamide], the IC50 in test [2] (setting [4]) is below 1.5 nM.
For `Cc1ccc(F)c(S(=O)(=O)Nc2ccc(-c3nc(OCC(F)(F)CN)c4c(C)n[nH]c4n3)cc2)c1` [Example 364], the IC50 in test [2] (setting [3]) was found to be 6.5 nM.

Source of the values: patent publication US9718825B2, “N-(4-(azaindazol-6-yl)-phenyl)-sulfonamides and their use as pharmaceuticals” (priority 2013, dated 2017).
